Test results reported in patent EP2987533B1, “7-substituted piperazin-1-yl fluoroquinolone compounds, their use in the treatment of cancer, pharmaceutical compositions and a method for preparation” (priority 2014, dated 2016).

Legend:
NSC lung cancer = experiment: NCI five-dose SRB assay, subpanel average; settings: 48 h; for GI50 / CC50: Homo sapiens; for GI50: read-out: GI50 (median growth inhibitory); for CC50: read-out: LC50 (median lethal); for TGI (total growth inhibitory): average over NSC lung cancer subpanel, five concentrations
melanoma = experiment: NCI five-dose SRB assay, subpanel average; settings: 48 h; for GI50 / CC50: Homo sapiens; for GI50: read-out: GI50 (median growth inhibitory); for CC50: read-out: LC50 (median lethal); for TGI (total growth inhibitory): average over melanoma subpanel, five concentrations
ACHN = experiment: NCI one-dose SRB growth assay; format: cell-based; settings: Homo sapiens; ACHN (Renal Cancer), 10^-5 M, 48 h; read-out: % Growth Inhibition (GI %)
Protocol: (§1) A primary anticancer assay was performed for an approximately 60 human tumor cell line panel derived from nine neoplastic diseases, in accordance with the protocol of the Drug Evaluation Branch, National Cancer Institute, Bethesda, MD (Monks A. et al., J. Natl. Cancer Inst 1991, 83, 757-766; Boyd M.R. and Paull K.D., Drug. Dev. Res. 1995, 34, 91-109; Shoemaker R.H., Nat. Rev. Cancer 2006, 6, 813-823). Briefly, tested compounds were added to the culture at a single concentration (10^-5M), and the cultures were incubated for 48 h. End point determinations were made with a protein binding dye, sulforhodamine B (SRB). The results for each tested compound were reported as the growth percentage of the treated cells when compared to that of the untreated control cells. The percentage growth was evaluated spectrophotometrically versus controls not treated with test agents.

SK-MEL-28 = experiment: NCI one-dose SRB growth assay; format: cell-based; settings: Homo sapiens; SK-MEL-28 (Melanoma), 10^-5 M, 48 h; read-out: % Growth Inhibition (GI %)
Protocol: as §1

SNB-19 = experiment: NCI one-dose SRB growth assay; format: cell-based; settings: Homo sapiens; SNB-19 (CNS Cancer), 10^-5 M, 48 h; read-out: % Growth Inhibition (GI %)
Protocol: as §1

DU-145 = experiment: NCI one-dose SRB growth assay; format: cell-based; settings: Homo sapiens; DU-145 (Prostate Cancer), 10^-5 M, 48 h; read-out: % Growth Inhibition (GI %)
Protocol: as §1

SK-OV-3 = experiment: NCI one-dose SRB growth assay; format: cell-based; settings: Homo sapiens; SK-OV-3 (Ovarian Cancer), 10^-5 M, 48 h; read-out: % Growth Inhibition (GI %)
Protocol: as §1

HCT-116 = experiment: NCI one-dose SRB growth assay; format: cell-based; settings: Homo sapiens; HCT-116 (Colon Cancer), 10^-5 M, 48 h; read-out: % Growth Inhibition (GI %)
Protocol: as §1

A498 = experiment: NCI one-dose SRB growth assay; format: cell-based; settings: Homo sapiens; A498 (Renal Cancer), 10^-5 M, 48 h; read-out: % Growth Inhibition (GI %)
Protocol: as §1

OVCAR-8 = experiment: NCI one-dose SRB growth assay; format: cell-based; settings: Homo sapiens; OVCAR-8 (Ovarian Cancer), 10^-5 M, 48 h; read-out: % Growth Inhibition (GI %)
Protocol: as §1

K-562 = experiment: NCI one-dose SRB growth assay; format: cell-based; settings: Homo sapiens, K562; K-562 (Leukemia), 10^-5 M, 48 h; read-out: % Growth Inhibition (GI %)
Protocol: as §1

RXF 393 = experiment: NCI one-dose SRB growth assay; format: cell-based; settings: Homo sapiens; RXF 393 (Renal Cancer), 10^-5 M, 48 h; read-out: % Growth Inhibition (GI %)
Protocol: as §1

SF-268 = experiment: NCI one-dose SRB growth assay; format: cell-based; settings: Homo sapiens; SF-268 (CNS Cancer), 10^-5 M, 48 h; read-out: % Growth Inhibition (GI %)
Protocol: as §1

SK-MEL-5 = experiment: NCI one-dose SRB growth assay; format: cell-based; settings: Homo sapiens; SK-MEL-5 (Melanoma), 10^-5 M, 48 h; read-out: % Growth Inhibition (GI %)
Protocol: as §1

SW-620 = experiment: NCI one-dose SRB growth assay; format: cell-based; settings: Homo sapiens; SW-620 (Colon Cancer), 10^-5 M, 48 h; read-out: % Growth Inhibition (GI %)
Protocol: as §1

OVCAR-5 = experiment: NCI one-dose SRB growth assay; format: cell-based; settings: Homo sapiens; OVCAR-5 (Ovarian Cancer), 10^-5 M, 48 h; read-out: % Growth Inhibition (GI %)
Protocol: as §1

SK-MEL-2 = experiment: NCI one-dose SRB growth assay; format: cell-based; settings: Homo sapiens; SK-MEL-2 (Melanoma), 10^-5 M, 48 h; read-out: % Growth Inhibition (GI %)
Protocol: as §1

SNB-75 = experiment: NCI one-dose SRB growth assay; format: cell-based; settings: Homo sapiens; SNB-75 (CNS Cancer), 10^-5 M, 48 h; read-out: % Growth Inhibition (GI %)
Protocol: as §1

NCI-H522 = experiment: NCI one-dose SRB growth assay; format: cell-based; settings: Homo sapiens; NCI-H522 (Non-Small Cell Lung Cancer), 10^-5 M, 48 h; read-out: % Growth Inhibition (GI %)
Protocol: as §1

TK-10 = experiment: NCI one-dose SRB growth assay; format: cell-based; settings: Homo sapiens; TK-10 (Renal Cancer), 10^-5 M, 48 h; read-out: % Growth Inhibition (GI %)
Protocol: as §1

NCI-H460 = experiment: NCI one-dose SRB growth assay; format: cell-based; settings: Homo sapiens; NCI-H460 (Non-Small Cell Lung Cancer), 10^-5 M, 48 h; read-out: % Growth Inhibition (GI %)
Protocol: as §1

SN12C = experiment: NCI one-dose SRB growth assay; format: cell-based; settings: Homo sapiens; SN12C (Renal Cancer), 10^-5 M, 48 h; read-out: % Growth Inhibition (GI %)
Protocol: as §1

PC-3 = experiment: NCI one-dose SRB growth assay; format: cell-based; settings: Homo sapiens; PC-3 (Prostate Cancer), 10^-5 M, 48 h; read-out: % Growth Inhibition (GI %)
Protocol: as §1

MDA-MB-468 = experiment: NCI one-dose SRB growth assay; format: cell-based; settings: Homo sapiens; MDA-MB-468 (Breast Cancer), 10^-5 M, 48 h; read-out: % Growth Inhibition (GI %)
Protocol: as §1

HOP-62 = experiment: NCI one-dose SRB growth assay; format: cell-based; settings: Homo sapiens; HOP-62 (Non-Small Cell Lung Cancer), 10^-5 M, 48 h; read-out: % Growth Inhibition (GI %)
Protocol: as §1

SR = experiment: NCI one-dose SRB growth assay; format: cell-based; settings: Homo sapiens; SR (Leukemia), 10^-5 M, 48 h; read-out: % Growth Inhibition (GI %)
Protocol: as §1

Compound	inhibition at 10 µM (ACHN) [%]	inhibition at 10 µM (SK-MEL-28) [%]	inhibition at 10 µM (SNB-19) [%]	inhibition at 10 µM (DU-145) [%]	inhibition at 10 µM (SK-OV-3) [%]	inhibition at 10 µM (HCT-116) [%]	inhibition at 10 µM (A498) [%]	inhibition at 10 µM (K-562) [%]	inhibition at 10 µM (RXF 393) [%]	inhibition at 10 µM (SF-268) [%]	inhibition at 10 µM (SK-MEL-5) [%]	inhibition at 10 µM (SW-620) [%]	inhibition at 10 µM (OVCAR-5) [%]	inhibition at 10 µM (SK-MEL-2) [%]	inhibition at 10 µM (SNB-75) [%]	inhibition at 10 µM (NCI-H522) [%]	inhibition at 10 µM (TK-10) [%]	inhibition at 10 µM (NCI-H460) [%]	inhibition at 10 µM (SN12C) [%]	inhibition at 10 µM (PC-3) [%]	further results
CCn1cc(C(=O)O)c(=O)c2cc(F)c(N3CCN(S(=O)(=O)c4ccc(Cl)cc4)CC3)cc21 [Compound 1a]	71.3	55.4	79.4	68.3	59.2	95.2	> 100	78.6	86.6	77.3	73.4	76	48.1	56.2	58.2	91.6	46.4	94.1	88.4	74.7	GI50 (NSC lung cancer): 2.87 µM; CC50 (NSC lung cancer): > 100 µM; TGI (total growth inhibitory) (NSC lung cancer): 53.38 µM; GI50 (melanoma): 2.56 µM; CC50 (melanoma): 89.7 µM; TGI (total growth inhibitory) (melanoma): 29.36 µM; inhibition at 10 µM (OVCAR-8): 87.4%
O=C(O)c1cn(C2CC2)c2cc(N3CCN(S(=O)(=O)c4ccc(Cl)cc4Cl)CC3)c(F)cc2c1=O [Compound 2b]	14.9	49.1	< 10	< 10	< 10	13.4	23.6	< 10	67.7	16.4	79.8	< 10	< 10	< 10	70.2	< 10	< 10	< 10	13.8	18.9	inhibition at 10 µM (OVCAR-8): < 10%; inhibition at 10 µM (MDA-MB-468): 65.1%; inhibition at 10 µM (HOP-62): 11.8%; inhibition at 10 µM (SR): 17.7%
O=c1[nH]cc(F)c(=O)[nH]1 [Compound 5-FU, 5-fluorouracil, reference compound]	39.3		65.9	35.5	77.5	17.8	> 100	42.3	34.3	59	33.7	50.1	44.3	95.5	65.9	58	66.9	13	54	58.2	GI50 (NSC lung cancer): > 100 µM; CC50 (NSC lung cancer): > 100 µM; TGI (total growth inhibitory) (NSC lung cancer): c (Compounds showed values > 100µM); GI50 (melanoma): 70.6 µM; CC50 (melanoma): > 100 µM; TGI (total growth inhibitory) (melanoma): c (Compounds showed values > 100µM); inhibition at 10 µM (HOP-62): 47.8%; inhibition at 10 µM (SR): 24.8%
CCn1cc(C(=O)O)c(=O)c2cc(F)c(N3CCN(S(=O)(=O)c4c(C)cc(C)cc4C)CC3)cc21 [Compound 6a]	24.2	< 10	10.1	< 10	< 10	20.9	21.1	20.1	11.1	16.3	20.5	< 10	11.4	11.3	29.2	13.5	< 10	17.2	11.5	38.9	inhibition at 10 µM (OVCAR-8): 18.5%; inhibition at 10 µM (MDA-MB-468): 19.7%; inhibition at 10 µM (HOP-62): 28.5%; inhibition at 10 µM (SR): 35.5%
